According to US20240269157A1, “COMPOSITIONS AND METHODS FOR OVERCOMING MICROENVIRONMENT-MEDIATED RESISTANCE VIA E-SELECTIN TARGETING” (GLYCOMIMETICS, INC., priority 2021, published 2024):

Tests used:
[1] = tested on: human MSC; test: CD44 surface expression in MSC exposed to soluble E-selectin; format: cell-based; conditions: MSC in vitro
Description: To determine if E-selectin has indispensable effects in bone marrow niche component cells, healthy donor derived-mesenchymal stroma cells (MSC) were exposed to increasing concentrations of E-selectin. […] Abrogation of E-selectin binding by Compound A diminished CD44 expression in vitro.

[2] = tested on: HUVEC co-cultured AML; test: Cell cycle regulating protein expression in HUVEC co-cultured AML; format: cell-based, human
[3] = tested on: PDX-AML (Ven/HMA-resistant); test: PDX-AML (Ven/HMA-resistant) model, FLT3-ITD, NRAS, GATA2 mutations; format: in vivo, NSG mice
Description: To evaluate the efficacy of targeting E-selectin with Compound A to selectively eradicate leukemia cells resistant to venetoclax/HMA therapy in the bone marrow niche, an […] PDX-AML model derived from an AML patient harboring FLT3-ITD, NRAS, and GATA2 mutations who initially responded to venetoclax/HMA therapy and then relapsed was employed (FIG. 1). The model reflects the present situation for many elderly AML patients: initial sensitivity, followed by resistance to venetoclax/HMA and relapse.
Patient-derived PDX cells from an AML patient (2.5×10^6 cells/mouse) were transplanted via tail vein into NSG mice. Once AML cells began to engraft, mice were divided into four groups: vehicle treatment only; 40 mg/kg of Compound A; 50 mg/kg venetoclax+5.5 mg/kg 5-azacitidine; and a combination of 40 mg/kg Compound A and 50 mg/kg venetoclax+5.5 mg/kg 5-azacitidine. Drug treatment was performed from day 60 to day 82 post-transplantation.
Leukemia progression and tumor burden were evaluated weekly during the treatment period (for 22 days) by determining the frequency and absolute number of human CD45^+ cells in peripheral blood using flow cytometry analysis. The synergistic effects of the combinatorial treatment on AML-PDX mouse survival were determined by Kaplan-Meier analysis (FIG. 2). […] The median survival of the vehicle control, Compound A, venetoclax/HMA, and combination-treated (Compound A+venetoclax/HMA) groups of mice was 86, 91, 81.5, and 106.5 days, respectively.
At the time when all of the control group of mice were moribund (after 23 days of treatment), 3 mice per group were sacrificed for single cell proteomics (CyTOF) and immunohistochemistry analysis.

[4] = tested on: PDX AML (Flt3-ITD and WT1 mutations, sorafenib-resistant); test: PDX model (Flt3-ITD and WT1 mutations, sorafenib-resistant), CyTOF after 2 days; format: in vivo, mice
Procedure: To delineate the mechanism of E-selectin at the onset of drug-mediated changes in AML signaling signatures, another PDX model was employed (Flt3-ITD and WT1 mutations, sorafenib-resistant).
PDX mice with advanced AML (more than 20% human AML cells circulation in peripheral blood) were administered vehicle control, venetoclax (25 mg/kg)/HMA (5.5 mg/kg), Compound A (200 mg/kg), or a combination therapy for 2 days. After 2 days of bolus drug administration, mice were sacrificed and subjected to CyTOF analysis (FIGS. 9A-C). Single cell proteomics analysis by CyTOF determined that combinatorial treatment of Compound A with venetoclax/HMA diminished levels of Ki67, IDU, and pRb compared to vehicle control or venetoclax/HMA alone, resulting in decreased proliferation of AML blasts.

[5] = tested on: HUVECs co-cultured with AML cells; test: eNOS phosphorylation in HUVECs co-cultured with AML cells; format: cell-based; design: dose or concentration left out as unconfirmed
[6] = tested on: KG1 cells; test: Flow cytometry of E-selectin-PE and HECA-452-FITC reactivity with KG1 cells; format: cell-based, human; conditions: 100 nM 5-AZA
Procedure: The increased adhesion of KG1 cells to E-selectin following treatment with 5-AZA was further examined by flow cytometry. Cells were cultured for 96 hours in the presence or absence of 100 nM 5-AZA. The binding of E-selectin-PE (E-selectin-Fc chimera conjugated with R-phycoerythrin) to the cells was determined by flow cytometry. In addition, the reactivity of the cells with HECA-452 monoclonal antibody, which specifically reacts with sialyl Lewis A/X carbohydrate structures and is a surrogate marker of E-selectin ligand, was determined by flow cytometry.
Specifically, KG1 cells were centrifuged at 250×g for 10 minutes, washed with HBSS containing 0.1% bovine serum albumin (HBSS/BSA), and resuspended in HBSS/BSA to approximately 3×10^6 cells per mL. The cells were treated with Fc receptor blocker (Miltenyi Biotech) and 100 μL aliquots (3×10^5 cells) were added to 12×75 mm Falcon polypropylene tubes. Cells were treated with either 5 μL E-selectin-Fc-PE reagent or 20 μL HECA-452-FITC antibody, placed at 4° C. for 45 minutes, washed with 2 mL then again with 1 mL HBSS/BSA. Final cell pellets were resuspended in 500 μl HBSS/BSA and analyzed on an Attune N×T flow cytometer. E-selectin was conjugated with R-phycoerythrin using the PE/R-phycoerythrin conjugation kit—Lightning-Link (Abcam ab102918).

[7] = tested on: FUT7 promoter; test: Targeted Next-Gen bisulfite sequencing of the FUT7 promoter region in KG1 cells; format: cell-based, human; conditions: dose and time dependent
Procedure: To test whether the increased expression of FUT7 mRNA in KG1 cells treated with 5-AZA could be due to hypomethylation of the FUT7 promoter, targeted Next-Gen bisulfite sequencing of the FUT7 promoter region was performed. The methylation status of 101 CpG sites surrounding the transcription start site was determined. […] Cells were collected after 96 hours of treatment and cell pellets were prepared. Extracted DNA samples (500 ng) were bisulfite modified using the EZ-96 DNA Methylation-Direct Kit™ (ZymoResearch; Irvine, CA; Catalog No. D5023) per the manufacturer's protocol with minor modification. The bisulfite modified DNA samples were eluted using M-elution buffer in 46 μL. Following DNA extraction and bisulfite modification, 26 regions surrounding the transcription start site were evaluated by PCR/NGS to assess the methylation status of 101 CpG sites. All bisulfite modified DNA samples were amplified using separate multiplex or simplex PCRs. PCRs included 0.5 units of HotStarTaq (Qiagen; Hilden, Germany; Catalog No. 203205), 0.2 μM primers, and 3 μL of bisulfite-treated DNA in a 20 μL reaction.

For `CCC1CC(C(=O)NCCNC(=O)CCOCCOCCOCCOCCOCCOCCOCCOCCOCCOCCOCCOC)C[C@@H](O[C@@H]2OC(CO)[C@H](O)C(O[C@@H](CC3CCCCC3)C(=O)O)C2NC(C)=O)[C@@H]1OC1O[C@@H](C)[C@H](O)C(O)[C@@H]1O` (stereo partly shown) [Compound A], the CD44 expression [1] was “diminished”, the “expression of cell cycle regulating proteins including CDK4, CDK6, CyclinD1, and CyclinD2” value [2] was “increased” and the median survival ([3]; 40 mg/kg Compound A, 50 mg/kg venetoclax+5.5 mg/kg 5-azacitidine, day 60 to 82) was 91 days. The “anti-leukemia efficacy of venetoclax/HMA” value ([3]; CyTOF, in vivo administration) was “enhanced”, the “leukemia cell infiltration in bone marrow, spleen, lung, and liver” value ([3]; histology, Compound A only compared to normal control mice) was “increased” and the “mobilization of human AML cells” value ([3]; mouse, in vivo) was “mobilized”. The “oncogenic signaling pathways MAPK, p-S6, and STAT3” value ([4]; Compound A added to venetoclax/HMA) was “inhibited”, the “activation of PI3K and AKT in AML blasts and BM CD31+EC cells” value ([4]; mouse, in vivo) was “reduced” and the “eNOS phosphorylation in EC” value ([4]; mouse, in vivo) was “decreased”. For the same molecule, the “phosphorylation of the enzyme eNOS” value [5] was “attenuated”.
In the case of `Nc1ncn([C@@H]2O[C@H](CO)[C@@H](O)[C@H]2O)c(=O)n1` [5-azacitidine], the “increase in MFI, HECA-452” value ([6]; 96 hours) is reported as 26%, the “increase in median fluorescence intensity, E-selectin-PE” value ([6]; 96 hours) is reported as 38% and the “increase in the percentage of cells reactive with E-selectin-PE” value ([6]; 96 hours) is reported as 38%. The “increase in the percentage of cells reactive with HECA-452” value ([6]; 96 hours) was 27%, the “percentage of cells reactive with HECA-452” value ([6]; 96 hours (untreated 37.8%)) was 47.9% and the “percentage of cells reactive with E-selectin-PE” value ([6]; 96 hours (untreated 38.4%)) was 52.9%. For the same molecule, the “MFI, HECA-452” value ([6]; 96 hours (untreated 621)) was 783, the “median fluorescence intensity (MFI), E-selectin-PE” value ([6]; 96 hours (untreated 940)) was 1299 and the “methylation of CpG sites of the FUT7 promoter region” value [7] was “demethylation”.
